According to publication PMC10938783, “A novel pan-PI3K inhibitor KTC1101 synergizes with anti-PD-1 therapy by targeting tumor suppression and immune activation” (Molecular Cancer, 2024):

Tested on: B16 cells gene expression
Assay: RNA-Seq (DEGs, GSEA, heatmaps) of B16 cells
Settings: B16 cells

`COc1cc(N)cc2c1nc(C(F)F)n2-c1nc(N2CCCOCC2)nc(N2CCOCC2)n1` [KTC1101, 2-(difluoromethyl)-4-methoxy-1-(4-morpholino-6-(1,4-oxazepan-4-yl)-1,3,5-triazin-2-yl)-1H-benzo[d]imidazol-6-amine] was tested, and the “NES: Fat digestion and absorption” value (GSEA KEGG mmu04975, KTC 0.2μM) was -1.65, the “enrichmentScore: Fat digestion and absorption” value (GSEA KEGG mmu04975, KTC 0.2μM) was -0.5488 and the “NES: Bile secretion” value (GSEA KEGG mmu04976, KTC 0.2μM) was 1.51. The “enrichmentScore: Bile secretion” value (GSEA KEGG mmu04976, KTC 0.2μM) was 0.4976, the “NES: Mineral absorption” value (GSEA KEGG mmu04978, KTC 0.2μM) was -1.388 and the “enrichmentScore: Mineral absorption” value (GSEA KEGG mmu04978, KTC 0.2μM) was -0.4138. For the same compound, the “NES: Cholesterol metabolism” value (GSEA KEGG mmu04979, KTC 0.2μM) was -1.456, the “enrichmentScore: Cholesterol metabolism” value (GSEA KEGG mmu04979, KTC 0.2μM) was -0.4442 and the “NES: Alzheimer disease” value (GSEA KEGG mmu05010, KTC 0.2μM) was -1.608. For the same compound, the “enrichmentScore: Alzheimer disease” value (GSEA KEGG mmu05010, KTC 0.2μM) was -0.3072, the “NES: Parkinson disease” value (GSEA KEGG mmu05012, KTC 0.2μM) was -1.964 and the “enrichmentScore: Parkinson disease” value (GSEA KEGG mmu05012, KTC 0.2μM) was -0.3949. The “NES: Amyotrophic lateral sclerosis” value (GSEA KEGG mmu05014, KTC 0.2μM) was -1.71, the “enrichmentScore: Amyotrophic lateral sclerosis” value (GSEA KEGG mmu05014, KTC 0.2μM) was -0.329 and the “NES: Huntington disease” value (GSEA KEGG mmu05016, KTC 0.2μM) was -1.539. For the same compound, the “enrichmentScore: Huntington disease” value (GSEA KEGG mmu05016, KTC 0.2μM) was -0.3057, the “NES: Prion disease” value (GSEA KEGG mmu05020, KTC 0.2μM) was -1.774 and the “enrichmentScore: Prion disease” value (GSEA KEGG mmu05020, KTC 0.2μM) was -0.3631. For the same compound, the “NES: Pathways of neurodegeneration - multiple diseases” value (GSEA KEGG mmu05022, KTC 0.2μM) was -1.25, the “enrichmentScore: Pathways of neurodegeneration - multiple diseases” value (GSEA KEGG mmu05022, KTC 0.2μM) was -0.2359 and the “NES: Morphine addiction” value (GSEA KEGG mmu05032, KTC 0.2μM) was 2.084. For the same compound, the “enrichmentScore: Morphine addiction” value (GSEA KEGG mmu05032, KTC 0.2μM) was 0.6804, the “NES: Leishmaniasis” value (GSEA KEGG mmu05140, KTC 0.2μM) was 1.636 and the “enrichmentScore: Leishmaniasis” value (GSEA KEGG mmu05140, KTC 0.2μM) was 0.5458. The “NES: Chagas disease” value (GSEA KEGG mmu05142, KTC 0.2μM) was 1.762, the “enrichmentScore: Chagas disease” value (GSEA KEGG mmu05142, KTC 0.2μM) was 0.5294 and the “NES: Amoebiasis” value (GSEA KEGG mmu05146, KTC 0.2μM) was 1.187. The “enrichmentScore: Amoebiasis” value (GSEA KEGG mmu05146, KTC 0.2μM) was 0.3662, the “NES: Hepatitis B” value (GSEA KEGG mmu05161, KTC 0.2μM) was 1.161 and the “enrichmentScore: Hepatitis B” value (GSEA KEGG mmu05161, KTC 0.2μM) was 0.3151. The “NES: Human cytomegalovirus infection” value (GSEA KEGG mmu05163, KTC 0.2μM) was 1.262, the “enrichmentScore: Human cytomegalovirus infection” value (GSEA KEGG mmu05163, KTC 0.2μM) was 0.333 and the “NES: Human T-cell leukemia virus 1 infection” value (GSEA KEGG mmu05166, KTC 0.2μM) was 1.309. For the same compound, the “enrichmentScore: Human T-cell leukemia virus 1 infection” value (GSEA KEGG mmu05166, KTC 0.2μM) was 0.342, the “NES: Kaposi sarcoma-associated herpesvirus infection” value (GSEA KEGG mmu05167, KTC 0.2μM) was 1.355 and the “enrichmentScore: Kaposi sarcoma-associated herpesvirus infection” value (GSEA KEGG mmu05167, KTC 0.2μM) was 0.3649. For the same compound, the “NES: Herpes simplex virus 1 infection” value (GSEA KEGG mmu05168, KTC 0.2μM) was 1.765, the “enrichmentScore: Herpes simplex virus 1 infection” value (GSEA KEGG mmu05168, KTC 0.2μM) was 0.4327 and the “NES: Transcriptional misregulation in cancer” value (GSEA KEGG mmu05202, KTC 0.2μM) was 1.705. For the same compound, the “enrichmentScore: Transcriptional misregulation in cancer” value (GSEA KEGG mmu05202, KTC 0.2μM) was 0.4772, the “NES: Proteoglycans in cancer” value (GSEA KEGG mmu05205, KTC 0.2μM) was 1.25 and the “enrichmentScore: Proteoglycans in cancer” value (GSEA KEGG mmu05205, KTC 0.2μM) was 0.3314. For the same compound, the “NES: Chemical carcinogenesis - reactive oxygen species” value (GSEA KEGG mmu05208, KTC 0.2μM) was -1.582, the “enrichmentScore: Chemical carcinogenesis - reactive oxygen species” value (GSEA KEGG mmu05208, KTC 0.2μM) was -0.3305 and the “NES: Prostate cancer” value (GSEA KEGG mmu05215, KTC 0.2μM) was 1.478. The “enrichmentScore: Prostate cancer” value (GSEA KEGG mmu05215, KTC 0.2μM) was 0.4248, the “NES: Basal cell carcinoma” value (GSEA KEGG mmu05217, KTC 0.2μM) was -1.6573 and the “enrichmentScore: Basal cell carcinoma” value (GSEA KEGG mmu05217, KTC 0.2μM) was -0.5057. For the same compound, the “NES: Acute myeloid leukemia” value (GSEA KEGG mmu05221, KTC 0.2μM) was 1.189, the “enrichmentScore: Acute myeloid leukemia” value (GSEA KEGG mmu05221, KTC 0.2μM) was 0.3668 and the “NES: Small cell lung cancer” value (GSEA KEGG mmu05222, KTC 0.2μM) was 1.1778. The “enrichmentScore: Small cell lung cancer” value (GSEA KEGG mmu05222, KTC 0.2μM) was 0.3365, the “NES: Breast cancer” value (GSEA KEGG mmu05224, KTC 0.2μM) was 1.3909 and the “enrichmentScore: Breast cancer” value (GSEA KEGG mmu05224, KTC 0.2μM) was 0.3926. The “NES: Hepatocellular carcinoma” value (GSEA KEGG mmu05225, KTC 0.2μM) was -1.183, the “enrichmentScore: Hepatocellular carcinoma” value (GSEA KEGG mmu05225, KTC 0.2μM) was -0.2565 and the “NES: Gastric cancer” value (GSEA KEGG mmu05226, KTC 0.2μM) was 1.191. For the same compound, the “enrichmentScore: Gastric cancer” value (GSEA KEGG mmu05226, KTC 0.2μM) was 0.3347, the “NES: Central carbon metabolism in cancer” value (GSEA KEGG mmu05230, KTC 0.2μM) was -1.65 and the “enrichmentScore: Central carbon metabolism in cancer” value (GSEA KEGG mmu05230, KTC 0.2μM) was -0.4278. For the same compound, the “NES: Inflammatory bowel disease” value (GSEA KEGG mmu05321, KTC 0.2μM) was 1.418, the “enrichmentScore: Inflammatory bowel disease” value (GSEA KEGG mmu05321, KTC 0.2μM) was 0.5282 and the “NES: Rheumatoid arthritis” value (GSEA KEGG mmu05323, KTC 0.2μM) was 1.449. For the same compound, the “enrichmentScore: Rheumatoid arthritis” value (GSEA KEGG mmu05323, KTC 0.2μM) was 0.4777, the “NES: Hypertrophic cardiomyopathy” value (GSEA KEGG mmu05410, KTC 0.2μM) was 1.341 and the “enrichmentScore: Hypertrophic cardiomyopathy” value (GSEA KEGG mmu05410, KTC 0.2μM) was 0.4238. For the same compound, the “NES: Dilated cardiomyopathy” value (GSEA KEGG mmu05414, KTC 0.2μM) was 1.501, the “enrichmentScore: Dilated cardiomyopathy” value (GSEA KEGG mmu05414, KTC 0.2μM) was 0.4674 and the “NES: Diabetic cardiomyopathy” value (GSEA KEGG mmu05415, KTC 0.2μM) was -1.29. For the same compound, the “enrichmentScore: Diabetic cardiomyopathy” value (GSEA KEGG mmu05415, KTC 0.2μM) was -0.2769, the “NES: Fluid shear stress and atherosclerosis” value (GSEA KEGG mmu05418, KTC 0.2μM) was -1.4518 and the “enrichmentScore: Fluid shear stress and atherosclerosis” value (GSEA KEGG mmu05418, KTC 0.2μM) was -0.3333. The “NES, mmu00071 Fatty acid degradation” value (KTC1101 0.2μM, GSEA KEGG) was 0.7528, the “NES, mmu00310 Lysine degradation” value (KTC1101 0.2μM, GSEA KEGG) was -0.7398 and the “NES, mmu00380 Tryptophan metabolism” value (KTC1101 0.2μM, GSEA KEGG) was 1.209. The “NES, mmu00500 Starch and sucrose metabolism” value (KTC1101 0.2μM, GSEA KEGG) was -1.196, the “NES, mmu00510 N-Glycan biosynthesis” value (KTC1101 0.2μM, GSEA KEGG) was -0.6482 and the “NES, mmu00513 Various types of N-glycan biosynthesis” value (KTC1101 0.2μM, GSEA KEGG) was 1.019. The “NES, mmu00514 Other types of O-glycan biosynthesis” value (KTC1101 0.2μM, GSEA KEGG) was 1.221, the “NES, mmu00562 Inositol phosphate metabolism” value (KTC1101 0.2μM, GSEA KEGG) was -1.021 and the “NES, mmu00564 Glycerophospholipid metabolism” value (KTC1101 0.2μM, GSEA KEGG) was -0.7177.
